Measured values reported in ChEMBL document CHEMBL1201862, “PubChem BioAssay data set” (2004).
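Five compound concentrations were applied to cells in 96-well plates for 48 hours; endpoints were derived by simple linear interpolation of the resulting dose-response curve. GI50 marks 50% less growth.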 Activity calls are given as the source filed them. No stated cut-off is given here; in the data, active = GI50 up to about 1.1 µM and inactive = higher.

Tests used:
Assay in all cases: DTP human tumour cell line panel, 48 h
786-0 = test system: 786-0
A498 = test system: A498
A549 = test system: A549
ACHN = test system: ACHN
CAKI-1 = test system: CAKI-1
CCRF-CEM = test system: CCRF-CEM
COLO 205 = test system: COLO 205
DLD-1 = test system: DLD-1
DMS-114 = test system: DMS-114
DMS-273 = test system: DMS-273
EKVX = test system: EKVX
HCC 2998 = test system: HCC 2998
HCT-116 = test system: HCT-116
HCT-15 = test system: HCT-15
HL-60 = test system: HL-60
HOP-18 = test system: HOP-18
HOP-62 = test system: HOP-62
HOP-92 = test system: HOP-92
HT-29 = test system: HT-29
IGROV-1 = test system: IGROV-1
K562 = test system: K562
KM-20L2 = test system: KM-20L2
KM12 = test system: KM12
LXFL 529 = test system: LXFL 529
M14 = test system: M14
M19-MEL = test system: M19-MEL
MOLT-4 = test system: MOLT-4
Malme-3M = test system: Malme-3M
NCI-H226 = test system: NCI-H226
NCI-H23 = test system: NCI-H23
NCI-H460 = test system: NCI-H460
NCI-H522 = test system: NCI-H522
OVCAR-3 = test system: OVCAR-3
OVCAR-4 = test system: OVCAR-4
OVCAR-5 = test system: OVCAR-5
OVCAR-8 = test system: OVCAR-8
RPMI-8226 = test system: RPMI-8226
RXF 393 = test system: RXF 393
SF-268 = test system: SF-268
SF-295 = test system: SF-295
SF-539 = test system: SF-539
SK-MEL-28 = test system: SK-MEL-28
SK-MEL-2 = test system: SK-MEL-2
SK-MEL-5 = test system: SK-MEL-5
SK-OV-3 = test system: SK-OV-3
SN12C = test system: SN12C
SNB-19 = test system: SNB-19
SNB-75 = test system: SNB-75
SNB-78 = test system: SNB-78
SR = test system: SR
SW-620 = test system: SW-620
TK-10 = test system: TK-10
U-251 = test system: U-251
UACC-257 = test system: UACC-257
UACC-62 = test system: UACC-62
UO-31 = test system: UO-31
XF498 = test system: XF498

Question: What does the source list for `CC(=O)CC(=O)Nc1ccccc1[N+](=O)[O-]`?
Answer: GI50 (786-0): > 100 µM (inactive); GI50 (A498): > 100 µM (inactive); GI50 (A549): > 100 µM (inactive); GI50 (ACHN): > 100 µM (inactive); GI50 (CAKI-1): > 100 µM (inactive); GI50 (CCRF-CEM): > 100 µM (inactive); GI50 (COLO 205): > 100 µM (inactive); GI50 (DLD-1): > 100 µM (inactive); GI50 (DMS-114): > 100 µM (inactive); GI50 (DMS-273): > 100 µM (inactive); GI50 (EKVX): > 100 µM (inactive); GI50 (HCC 2998): > 100 µM (inactive); GI50 (HCT-116): > 100 µM (inactive); GI50 (HCT-15): > 100 µM; GI50 (HL-60): > 100 µM (inactive); GI50 (HOP-18): > 100 µM (inactive); GI50 (HOP-62): > 100 µM (inactive); GI50 (HOP-92): > 100 µM (inactive); GI50 (HT-29): > 100 µM (inactive); GI50 (IGROV-1): > 100 µM (inactive); GI50 (K562): > 100 µM (inactive); GI50 (KM-20L2): > 100 µM (inactive); GI50 (KM12): > 100 µM (inactive); GI50 (LXFL 529): > 100 µM (inactive); GI50 (M14): > 100 µM (inactive); GI50 (M19-MEL): > 100 µM (inactive); GI50 (MOLT-4): > 100 µM (inactive); GI50 (Malme-3M): > 100 µM (inactive); GI50 (NCI-H226): > 100 µM (inactive); GI50 (NCI-H23): > 100 µM (inactive); GI50 (NCI-H460): > 100 µM (inactive); GI50 (NCI-H522): > 100 µM (inactive); GI50 (OVCAR-3): > 100 µM (inactive); GI50 (OVCAR-4): > 100 µM (inactive); GI50 (OVCAR-5): > 100 µM (inactive); GI50 (OVCAR-8): > 100 µM (inactive); GI50 (RPMI-8226): > 100 µM (inactive); GI50 (RXF 393): > 100 µM (inactive); GI50 (SF-268): > 100 µM (inactive); GI50 (SF-295): > 100 µM (inactive); GI50 (SF-539): > 100 µM (inactive); GI50 (SK-MEL-28): > 100 µM (inactive); GI50 (SK-MEL-2): > 100 µM (inactive); GI50 (SK-MEL-5): > 100 µM (inactive); GI50 (SK-OV-3): > 100 µM (inactive); GI50 (SN12C): > 100 µM (inactive); GI50 (SNB-19): > 100 µM (inactive); GI50 (SNB-75): > 100 µM (inactive); GI50 (SNB-78): > 100 µM (inactive); GI50 (SR): > 100 µM (inactive); GI50 (SW-620): > 100 µM (inactive); GI50 (TK-10): > 100 µM (inactive); GI50 (U-251): > 100 µM (inactive); GI50 (UACC-257): > 100 µM (inactive); GI50 (UACC-62): > 100 µM (inactive); GI50 (UO-31): > 100 µM (inactive); GI50 (XF498): > 100 µM (inactive)
